The values that follow come from patent US5159081A, “Intermediates of peripherally selective N-carbonyl-3,4,4-trisubstituted piperidine opioid antagonists” (Eli Lilly and Company, priority 1991, dated 1992).

For one assay, the target named is T1, mu receptor (Rattus norvegicus, UniProt P33535).
T1 construct: The brain tissue, rat whole brain minus cerebellum for mu was homogenized; from tissue; host or cells: brain minus cerebellum of male Sprague Dawley rats, homogenate fraction
Put plainly: Naloxone [3H] opioid receptor binding assay (mu receptor). To be noted: 20 min; for Ki: rat whole brain minus cerebellum, pH 7.4, 37° C., read-out: Ki. The arrangement: species or system rat (male Sprague Dawley).

For another assay, the target named is T2, opioid receptor (Mus musculus, UniProt P42866).
T2 construct: Five CF-1 male mice (Charles River, Portage, MI); from tissue; host or cells: living CF-1 male mice (whole animal, endogenous receptor)
Briefly: in vivo. The arrangement: species or system CF-1 male mice. The note with it: sc.

For assay [1], the system named is peripheral opioid receptors. Briefly: mouse diarrhea test: precipitated diarrhea in morphine-maintained mice (peripheral opioid activity). The assay is classed as in vivo.
The mark [2] stands for this setting: pH 7.4, read-out: % displacement at 10 nM.
[3] abbreviates: pH 7.4, read-out: % displacement at 100 nM.
Where [4] appears, read: mouse writhing test, dose of antagonist that reduced inhibition of writhing by 1.25 mg/kg morphine sulfate to 50%, s.c. 20 min before acetic acid, read-out: AD50 (the source's name).
The mark [5] stands for this setting: AD50 mouse writhing / ED50 mouse diarrhea, higher = greater relative peripheral antagonism.
[6] abbreviates: mouse writhing test, […], s.c. 20 min before acetic acid, read-out: AD50 (the source's name).
The mark [7] stands for this setting: pH 7.4, 100 nM test compound, [3H]naloxone 0.5 nM, […], read-out: % displacement at 100 nM.

SMILES strings stand for the structures. Where a name gives a salt, the structure may show the parent alone. Read-outs that look alike come from different tables or passages of the source.

T2 sequence (P42866 whole entry): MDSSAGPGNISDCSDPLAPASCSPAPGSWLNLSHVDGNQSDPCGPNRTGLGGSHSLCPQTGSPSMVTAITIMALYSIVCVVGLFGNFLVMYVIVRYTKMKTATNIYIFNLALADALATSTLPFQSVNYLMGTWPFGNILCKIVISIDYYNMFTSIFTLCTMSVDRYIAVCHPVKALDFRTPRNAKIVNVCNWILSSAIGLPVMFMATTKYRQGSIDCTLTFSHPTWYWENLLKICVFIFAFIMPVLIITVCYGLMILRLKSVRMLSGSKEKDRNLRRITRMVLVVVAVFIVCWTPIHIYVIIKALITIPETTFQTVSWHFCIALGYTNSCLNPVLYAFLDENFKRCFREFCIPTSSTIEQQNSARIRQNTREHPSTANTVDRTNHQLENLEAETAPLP
T1 sequence (P33535 whole entry): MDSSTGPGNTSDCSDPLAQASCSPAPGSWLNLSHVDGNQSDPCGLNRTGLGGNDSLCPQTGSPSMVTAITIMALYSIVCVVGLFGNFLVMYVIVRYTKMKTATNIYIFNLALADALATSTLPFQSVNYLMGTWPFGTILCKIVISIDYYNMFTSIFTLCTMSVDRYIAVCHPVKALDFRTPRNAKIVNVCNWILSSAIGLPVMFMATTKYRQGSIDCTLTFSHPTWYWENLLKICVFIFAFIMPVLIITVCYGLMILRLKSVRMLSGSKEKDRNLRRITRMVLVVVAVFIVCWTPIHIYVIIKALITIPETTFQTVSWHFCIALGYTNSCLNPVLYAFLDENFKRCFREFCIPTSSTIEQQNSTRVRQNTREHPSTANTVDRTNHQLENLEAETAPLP

For `C[C@H]1CN(CCN(C(=O)CCCC(=O)O)c2ccccc2)CC[C@@]1(C)c1cccc(O)c1` (relative stereo) [Example 20, Trans-5-(phenyl-(2-(4-(3-hydroxyphenyl)-3,4-dimethyl-1-piperidinyl)ethyl)amino)-5-oxopentanoic acid monohydrate], the inhibition at 0.01 µM on mu receptor (setting [2]) stood at 95%. Besides, the inhibition at 0.1 µM on mu receptor (setting [3]) was 99%. In addition, the ED50 at opioid receptor (mouse, read-out: AD50) turned out to be 2.1 mg/kg. In addition, in assay [1] (mouse, in vivo), the “Ratio (ratio of AD50 to ED50)” value is on record as 35.
Consider `C[C@H]1CN(CCN(C(=O)CCC(=O)O)C2CCCCC2)CC[C@@]1(C)c1cccc(O)c1` (relative stereo) [Example 22, 4-(Cyclohexyl-(2-(trans-4-(3-hydroxyphenyl)-3,4-dimethyl-1-piperidinyl)ethyl)amino)-4-oxobutanoic acid monohydrate], for which, at mu receptor (setting [2]), the inhibition at 0.01 µM worked out at 51%. Besides, the inhibition at 0.1 µM on mu receptor (setting [3]) stood at 93%. For the same molecule, on mu receptor ([…], [3H]naloxone 0.5 nM), the Ki (usually a dissociation constant, usually derived from enzyme kinetics or from competition with a known ligand) stood at 3.59 nM. Further, the ED50 on opioid receptor (setting [4]) came to 1.25 mg/kg. Further, in assay [1] (setting [5]), the “Ratio (ratio of AD50 to ED50)” value stood at 63.
Taken in the same sequence, the figures for `C[C@H]1CN(CCN(C(=O)CCCC(=O)O)C2CCCCC2)CC[C@@]1(C)c1cccc(O)c1` (relative stereo) [Example 23, 5-(Cyclohexyl-(2-(trans-4-(3-hydroxyphenyl)-3,4-dimethyl-1-piperidinyl)ethyl)amino)-5-oxopentanoic acid monohydrate] were 77%, 100%, 4.38 nM, greater than 1.25 mg/kg and greater than 5.
Regarding `C[C@H]1CN(CCCN(C(=O)CCCC(=O)O)C2CCCCC2)CC[C@@]1(C)c1cccc(O)c1` (relative stereo) [Example 25, 5-(cyclohexyl-(3-(trans-4-(3-hydroxyphenyl)-3,4-dimethyl-1-piperidinyl)propyl)amino)-5-oxopentanoic acid], the inhibition at 0.01 µM on mu receptor (setting [2]) is 77%. At mu receptor (setting [3]), the inhibition at 0.1 µM was 93%. In addition, the inhibition constant (Ki) on mu receptor ([…], [3H]naloxone 0.5 nM) was determined as 1.18 nM. Moreover, the ED50 on opioid receptor (setting [6]) is 0.61 mg/kg. In addition, the “Ratio (ratio of AD50 to ED50)” value in assay [1] (setting [5]) was 10.
Consider `C[C@H]1CN(CCN(CC2CCCCC2)C(=O)CCC(=O)O)CC[C@@]1(C)c1cccc(O)c1` (relative stereo) [Example 26, 4-(cyclohexylmethyl-(2-(trans-4-(3-hydroxyphenyl)-3,4-dimethyl-1-piperidinyl)ethyl)amino)-4-oxobutanoic acid monohydrate], for which the inhibition at 0.01 µM on mu receptor (setting [2]) was determined as 73%. In addition, the inhibition at 0.1 µM at mu receptor (setting [3]) came out at 100%. In addition, at mu receptor ([…], [3H]naloxone 0.5 nM), the Ki is 1.91 nM. Besides, the ED50 at opioid receptor (setting [6]) is 3.6 mg/kg. The “Ratio (ratio of AD50 to ED50)” value in assay [1] (setting [5]) came to 72.
In the case of `C[C@H]1CN(CCCN(CC2CCCCC2)C(=O)CCCC(=O)O)CC[C@@]1(C)c1cccc(O)c1` (relative stereo) [Example 27, Trans-5-(cyclohexylmethyl(3-(4-(3-hydroxyphenyl)-3,4-dimethyl-1-piperidinyl)propyl)amino)-5-oxopentanoic acid monohydrate], the inhibition at 0.01 µM at mu receptor (setting [2]) was determined as 63%. For the same molecule, on mu receptor (setting [3]), the inhibition at 0.1 µM is 93%. Also, the Ki at mu receptor ([…], [3H]naloxone 0.5 nM) worked out at 8 nM. At opioid receptor (setting [6]), the ED50 amounted to 11 mg/kg. For the same molecule, the “Ratio (ratio of AD50 to ED50)” value in assay [1] (setting [5]) is reported as 61.
Turning to `CC(C)OC(=O)CCC(=O)N(CCN1CC[C@@](C)(c2cccc(O)c2)[C@@H](C)C1)C1CCCCC1` (relative stereo) [Example 30, 4-(Cyclohexyl-(2-(trans-4-(3-hydroxyphenyl)-3,4-dimethyl-1-piperidinyl)ethyl)amino)-4-oxobutanoic acid 1-methyl-ethyl ester], the inhibition at 0.01 µM at mu receptor (setting [2]) was determined as 79%. Further, the inhibition at 0.1 µM on mu receptor (setting [3]) stood at 96%. The Ki at mu receptor ([…], [3H]naloxone 0.5 nM) turned out to be 11 nM. The ED50 on opioid receptor (setting [6]) stood at 12.4 mg/kg. In addition, the “Ratio (ratio of AD50 to ED50)” value in assay [1] (setting [5]) is reported as greater than 40.
As to `CCCOC(=O)CCC(=O)N(CCN1CC[C@@](C)(c2cccc(O)c2)[C@@H](C)C1)C1CCCCC1` (relative stereo) [Example 31, 4-(Cyclohexyl-(2-(trans-4-(3-hydroxyphenyl)-3,4-dimethyl-1-piperidinyl)ethyl)amino)-4-oxobutanoic acid propyl ester], the inhibition at 0.01 µM at mu receptor (setting [2]) is 82%. The inhibition at 0.1 µM on mu receptor (setting [7]) amounted to 97%. In addition, at mu receptor ([…], [3H]naloxone 0.5 nM), the Ki is 2.52 nM. Further, the ED50 on opioid receptor (setting [6]) is greater than 40 mg/kg. Besides, the “Ratio (ratio of AD50 to ED50)” value in assay [1] (setting [5]) is reported as greater than 200.
Regarding `CCOC(=O)CCCC(=O)N(CCCN1CC[C@@](C)(c2cccc(O)c2)[C@@H](C)C1)C1CCCCC1` (relative stereo) [Example 33, 5-(Cyclohexyl-(3-(trans-4-(3-hydroxyphenyl)-3,4-dimethyl-1-piperidinyl)propyl)amino)-5-oxopentanoic acid ethyl ester monohydrochloride], at mu receptor (setting [3]), the inhibition at 0.1 µM amounted to 99%. Also, on mu receptor (pH 7.4, 10 nM test compound, [3H]naloxone 0.5 nM, […], read-out: % displacement at 10 nM), the inhibition at 0.01 µM amounted to 83%. For the same molecule, on mu receptor ([…], [3H]naloxone 0.5 nM), the Ki was 0.26 nM. Besides, on opioid receptor (setting [6]), the ED50 was 3.67 mg/kg. Besides, the “Ratio (ratio of AD50 to ED50)” value in assay [1] (setting [5]) amounted to 122.
On to `C[C@H]1CN(CCN(C(=O)CCC(N)=O)C2CCCCC2)CC[C@@]1(C)c1cccc(O)c1` (relative stereo) [Example 35, N-Cyclohexyl-N-(2-(trans-4-(3-hydroxyphenyl)-3,4-dimethyl-1-piperidinyl)ethyl)butanediamide monohydrochloride], for which the inhibition at 0.01 µM on mu receptor (setting [2]) came out at 80%. For the same molecule, the inhibition at 0.1 µM on mu receptor (setting [3]) was 99%. On mu receptor ([…], [3H]naloxone 0.5 nM), the Ki was determined as 2.15 nM. In addition, the ED50 on opioid receptor (setting [4]) was greater than 1.25 mg/kg. Also, the “Ratio (ratio of AD50 to ED50)” value in assay [1] (setting [5]) is given as greater than 3.
Regarding `C[C@H]1CN(CCCN(C(=O)CCCC(N)=O)C2CCCCC2)CC[C@@]1(C)c1cccc(O)c1` (relative stereo) [Example 37, N-(3-(trans-4-(3-hydroxyphenyl)-3,4-dimethyl-1-piperidinyl)propyl)-N-cyclohexylpentanediamide monohydrochloride monohydrate], at mu receptor (setting [2]), the inhibition at 0.01 µM amounted to 88%. In addition, the inhibition at 0.1 µM on mu receptor (setting [3]) came out at 100%. The inhibitory constant (Ki) at mu receptor ([…], [3H]naloxone 0.5 nM) was 0.61 nM. Besides, the ED50 on opioid receptor (setting [6]) came to 12.8 mg/kg. The “Ratio (ratio of AD50 to ED50)” value in assay [1] (setting [5]) came out at 256.
On to `CNC(=O)CNC(=O)CC(=O)N(CCN1CC[C@@](C)(c2cccc(O)c2)[C@@H](C)C1)C1CCCCC1` (relative stereo) [Example 38, N-cyclohexyl-N-(2-(trans-4-(3-hydroxyphenyl)-3,4-dimethyl-1-piperidinyl)ethyl)-N'-(2-(methylamino)-2-oxoethyl)propanediamide monohydrochloride], for which the inhibition at 0.01 µM on mu receptor (setting [2]) turned out to be 79%. The inhibition at 0.1 µM on mu receptor (setting [7]) was 98%. Besides, the Ki on mu receptor ([…], [3H]naloxone 0.5 nM) was 2.98 nM. Also, the ED50 at opioid receptor (setting [6]) is 28.9 mg/kg. For the same molecule, the “Ratio (ratio of AD50 to ED50)” value in assay [1] (setting [5]) turned out to be 1605.
On to `CC(C)CC(=O)NCCCC(=O)N(CCN1CC[C@@](C)(c2cccc(O)c2)[C@@H](C)C1)C1CCCCC1` (relative stereo) [Example 40, hydrochloride], for which the inhibition at 0.01 µM at mu receptor (setting [2]) was found to be 87%. Also, the inhibition at 0.1 µM at mu receptor (setting [3]) was 100%. Also, the Ki on mu receptor ([…], [3H]naloxone 0.5 nM) was 1.16 nM. Further, the ED50 at opioid receptor (setting [6]) is 2.2 mg/kg. The “Ratio (ratio of AD50 to ED50)” value in assay [1] (mouse, in vivo) is on record as 3.
`CCOC(=O)CCCC(=O)NC(CCN1CC[C@@](C)(c2cccc(O)c2)[C@@H](C)C1)CC(C)C` (single isomer, unassigned) [Example 3A, 5-((1-(2-(trans-4-(3-hydroxyphenyl)-3,4-dimethyl-1-piperidinyl)ethyl)-3-methylbutyl)amino)-5-oxopentanoic acid ethyl ester monohydrochloride]: on mu receptor (setting [2]), the inhibition at 0.01 µM is 100%. Moreover, the inhibition at 0.1 µM at mu receptor (setting [3]) is 100%. Besides, the Ki at mu receptor ([…], [3H]naloxone 0.5 nM) came out at 0.3 nM. Besides, at opioid receptor (setting [6]), the ED50 was determined as 14.2 mg/kg. Moreover, the “Ratio (ratio of AD50 to ED50)” value in assay [1] (setting [5]) stood at 89.
Take `CCOC(=O)CCCC(=O)NC(CCN1CC[C@@](C)(c2cccc(O)c2)[C@@H](C)C1)CC(C)C` (stereo in doubt) [Example 3B, 5-((1-(2-(trans-4-(3-hydroxyphenyl)-3,4-dimethyl-1-piperidinyl)ethyl)-3-methylbutyl)amino)-5-oxopentanoic acid ethyl ester monohydrochloride]: on mu receptor (setting [2]), the inhibition at 0.01 µM came out at 93%. Further, the inhibition at 0.1 µM on mu receptor (setting [3]) was determined as 99%. Also, the Ki at mu receptor ([…], [3H]naloxone 0.5 nM) stood at 0.86 nM. For the same molecule, at opioid receptor (setting [6]), the ED50 is 15.5 mg/kg. Further, the “Ratio (ratio of AD50 to ED50)” value in assay [1] (setting [5]) was 111.
For the molecule `CCOC(=O)CCCC(=O)N[C@@H](CC1CCCCC1)CN1CC[C@](C)(c2cccc(O)c2)[C@H](C)C1` [Example 51], the inhibition at 0.01 µM on mu receptor (setting [2]) was found to be 73%. Also, the inhibition at 0.1 µM at mu receptor (setting [3]) worked out at 97%. Further, the ED50 on opioid receptor (setting [6]) is greater than 40 mg/kg.
In the case of `C[C@H]1CN(C[C@H](CC2CCCCC2)NC(=O)CCCC(=O)OCC(=O)N(C)C)CC[C@@]1(C)c1cccc(O)c1` [Example 64], at mu receptor (setting [2]), the inhibition at 0.01 µM turned out to be 81%. Also, the inhibition at 0.1 µM at mu receptor (setting [3]) is 94%. Moreover, the Ki at mu receptor ([…], [3H]naloxone 0.5 nM) was determined as 1.51 nM. Moreover, the ED50 at opioid receptor (setting [6]) was found to be 13.5 mg/kg.
`CC(=O)OC(C)OC(=O)CCCC(=O)N[C@@H](CC1CCCCC1)CN1CC[C@@](C)(c2cccc(O)c2)[C@@H](C)C1` (stereo partly drawn) [Example 67]: on mu receptor (pH 7.4, 10 nM test compound, [3H]naloxone 0.5 nM, mu receptor, read-out: % displacement at 10 nM), the inhibition at 0.01 µM came to 73%. For the same molecule, the inhibition at 0.1 µM at mu receptor (pH 7.4, 100 nM test compound, [3H]naloxone 0.5 nM, mu receptor, read-out: % displacement at 100 nM) worked out at 95%. Further, the ED50 on opioid receptor (setting [6]) was greater than 40 mg/kg.
